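Five concentrations, 48 hours, 96-well plates. Here, GI50 denotes the concentration required for 50% inhibition of growth.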 The source made the active and inactive calls. No stated cut-off is given here; in the data, active = GI50 up to about 1.1 µM and inactive = higher.
How the values were obtained:
Test in all cases: DTP human tumour cell line panel, 48 h
[1] = system: PC-3
[2] = system: U-251
[3] = system: SW-620
[4] = system: HOP-62
[5] = system: MDA-MB-435
[6] = system: 786-0
[7] = system: SN12C
[8] = system: DU-145
[9] = system: SF-539
[10] = system: HOP-92
[11] = system: HL-60
[12] = system: UACC-62
[13] = system: LOX IMVI
[14] = system: CAKI-1
[15] = system: KM12
[16] = system: A549
[17] = system: IGROV-1
[18] = system: NCI-H522
[19] = system: SF-295
[20] = system: UACC-257

Measured: GI50

Cc1ccc(OC2CC(n3cnc4c(=O)[nH]c(Br)nc43)OC2Oc2ccc(C)cc2)cc1 (stereo not given)
inactive: [1] 22.6 µM | [2] 29.1 µM | [3] 44.4 µM | [4] 24.1 µM | [5] 24 µM | [6] 26.3 µM | [7] 26.2 µM | [8] 24.7 µM | [9] 20.2 µM | [10] 22.4 µM | [11] 30.3 µM | [12] 23.7 µM | [13] 26.2 µM | [14] 24.9 µM | [15] 29 µM | [16] 22.7 µM | [17] 24.4 µM | [18] 21.2 µM | [19] 21.7 µM | [20] 25 µM

CCC(=O)c1cc(C(=O)C(=S)SC)cc(C(=O)C(=S)SC)c1
inactive: [1] > 100 µM | [2] > 69.3 µM | [3] 52.8 µM | [4] > 100 µM | [5] > 100 µM | [6] > 85.7 µM | [7] > 100 µM | [8] > 100 µM | [9] > 100 µM | [10] > 59.7 µM | [11] 4.83 µM | [12] > 100 µM | [13] 4.19 µM | [14] > 100 µM | [15] > 100 µM | [16] > 100 µM | [17] > 100 µM | [18] > 55.3 µM | [19] > 100 µM | [20] > 100 µM

Cc1cc(C)nc(NS(=O)(=O)c2ccc(NC(=O)c3ccc4nc5ccccc5c(Nc5ccc(S(=O)(=O)Nc6nc(C)cc(C)n6)cc5)c4c3)cc2)n1
inactive: [1] 59.7 µM | [2] 35.3 µM | [3] 41.4 µM | [4] > 100 µM | [5] > 100 µM | [6] > 100 µM | [7] 46.5 µM | [8] > 100 µM | [9] 88.3 µM | [10] 23 µM | [11] 33 µM | [12] 66.4 µM | [13] 19.1 µM | [14] > 100 µM | [15] 30.3 µM | [16] > 100 µM | [17] 52.5 µM | [18] 25.5 µM | [19] > 100 µM | [20] > 100 µM

C[N+](C)(N)CCC[N+](C)(C)N
inactive: [1] > 100 µM | [2] > 100 µM | [3] > 100 µM | [4] > 100 µM | [5] > 100 µM | [6] > 100 µM | [7] > 100 µM | [8] > 100 µM | [9] > 100 µM | [10] > 100 µM | [11] > 100 µM | [12] > 100 µM | [13] > 100 µM | [14] > 100 µM | [15] > 100 µM | [16] > 100 µM | [17] > 100 µM | [18] > 100 µM | [19] > 100 µM | [20] > 100 µM

COC1(OC)C(/C(N)=C\O)=NC(C)(C)N1O
inactive: [1] > 100 µM | [2] > 100 µM | [3] > 100 µM | [4] > 100 µM | [5] > 100 µM | [6] > 100 µM | [7] > 100 µM | [8] > 100 µM | [9] > 100 µM | [10] > 100 µM | [11] 20.4 µM | [12] > 100 µM | [13] > 100 µM | [14] > 100 µM | [15] > 100 µM | [16] > 100 µM | [17] > 100 µM | [18] > 100 µM | [19] > 100 µM | [20] > 100 µM

From ChEMBL document CHEMBL1201862, “PubChem BioAssay data set” (2004)
